Laboratory results: paper PMC4965013, “Open Source Drug Discovery with the Malaria Box Compound Collection for Neglected Diseases and Beyond” (PLoS Pathogens, 2016)

Columns and labels:
[1] = tested on: P. falciparum; assay: EC50 listed in S2 Table Metabolomics (used to set the concentration tested); format: cell-based; details: Plasmodium falciparum; EC50 used for Factor_XEC50 in metabolomics; read-out: EC50_nM
[2] = tested on: P. falciparum 3D7 trophozoites; assay: Metabolomic fingerprint profiling LC-MS; format: cell-based, Plasmodium falciparum; set-up: UDP-D-glucose / ADP-D-glucose: unit not given here; details: for Acetyllysine / N-acetyl-L-ornithine / N-carbamoyl-L-aspartate / NADPH / dAMP / dCMP / dTDP / dTMP / dTTP / dihydroorotate / orotate / DLH / DLS/SDL/SID / PD / PEE / PVNF / 3-phosphoglycerate / ADP-D-glucose / ATP / CDP / D-sedoheptulose-1/7-phosphate / FAD / GMP / NAD+ / NADP+ / Octoluse Bisphosphate / Pyroglutamic acid / UDP-D-glucose / UDP-D-glucuronate / UDP-N-acetyl-glucosamine / UDP / UMP / UTP / a-ketoglutarate / citrate/isocitrate / cytidine / dATP / dGMP/AMP / fumarate / glucose-1/6-phosphate / glycerate / guanine / guanosine / hypoxanthine / indole / inosine / nicotinate / ornithine / phosphoenolpyruvate / pyruvate / ribose-phosphate / sarcosine/alanine / sn-glycerol-3-phosphate / succinate/methylmalonic acid / uridine / xanthosine: S2 Table Metabolomics; for Acetyllysine: metabolite Acetyllysine; for N-acetyl-L-ornithine: metabolite N-acetyl-L-ornithine; for N-carbamoyl-L-aspartate: metabolite N-carbamoyl-L-aspartate; for NADPH: metabolite NADPH; for dAMP: metabolite dAMP; for dCMP: metabolite dCMP; for dTDP: metabolite dTDP; for dTMP: metabolite dTMP; for dTTP: metabolite dTTP; for dihydroorotate: metabolite dihydroorotate; for orotate: metabolite orotate; for DLH: peptide DLH; for DLS/SDL/SID: peptide DLS/SDL/SID; for PD: peptide PD; for PEE: peptide PEE; for PVNF: peptide PVNF; for 3-phosphoglycerate: metabolite 3-phosphoglycerate; for ADP-D-glucose: metabolite ADP-D-glucose; for ATP: metabolite ATP; for CDP: metabolite CDP; for CDP / D-sedoheptulose-1/7-phosphate / GMP / Octoluse Bisphosphate / UDP / UMP / UTP / citrate/isocitrate / dGMP/AMP / fumarate / glucose-1/6-phosphate / glycerate / guanine / guanosine / inosine / pyruvate / sarcosine/alanine / succinate/methylmalonic acid / uridine / xanthosine: change in metabolite level after compound treatment; for D-sedoheptulose-1/7-phosphate: metabolite D-sedoheptulose-1/7-phosphate; for FAD: metabolite FAD; for GMP: metabolite GMP; for NAD+: metabolite NAD+; for NADP+: metabolite NADP+; for Octoluse Bisphosphate: metabolite Octoluse Bisphosphate; for Pyroglutamic acid: metabolite Pyroglutamic acid; for UDP-D-glucose: metabolite UDP-D-glucose; for UDP-D-glucuronate: metabolite UDP-D-glucuronate; for UDP-N-acetyl-glucosamine: metabolite UDP-N-acetyl-glucosamine; for UDP: metabolite UDP; for UMP: metabolite UMP; for UTP: metabolite UTP; for a-ketoglutarate: metabolite a-ketoglutarate; for citrate/isocitrate: metabolite citrate/isocitrate; for cytidine: metabolite cytidine; for dATP: metabolite dATP; for dGMP/AMP: metabolite dGMP/AMP; for fumarate: metabolite fumarate; for glucose-1/6-phosphate: metabolite glucose-1/6-phosphate; for glycerate: metabolite glycerate; for guanine: metabolite guanine; for guanosine: metabolite guanosine; for hypoxanthine: metabolite hypoxanthine; for indole: metabolite indole; for inosine: metabolite inosine; for 2_3-Diphosphoglyceric acid / 4-phosphopantothenate / 6-phospho-D-gluconate / FMN / IMP / Pyrophosphate / Sedoheptoluse bisphosphate / cyclic-AMP / glutathione disulfide / lactate / myo-inositol: metabolite level change after treatment; for nicotinate: metabolite nicotinate; for ornithine: metabolite ornithine; for phosphoenolpyruvate: metabolite phosphoenolpyruvate; for pyruvate: metabolite pyruvate; for ribose-phosphate: metabolite ribose-phosphate; for sarcosine/alanine: metabolite sarcosine/alanine; for sn-glycerol-3-phosphate: metabolite sn-glycerol-3-phosphate; for succinate/methylmalonic acid: metabolite succinate/methylmalonic acid; for uridine: metabolite uridine; for xanthosine: metabolite xanthosine

## Cc1cccc(Nc2nc(N)c3ccccc3n2)c1 [MMV019110]
[1]
  EC50: 400 nM
[2]
  Acetyllysine: -0.7861
  N-acetyl-L-ornithine: -0.3066
  N-carbamoyl-L-aspartate: 0.8718
  NADPH: 1.0636
  dAMP: 0.1705
  dCMP: -1.068
  dTDP: -0.2853
  dTMP: -0.4806
  dTTP: -0.142
  dihydroorotate: 1.069
  orotate: -0.7263
  DLH: -1.2334
  DLS/SDL/SID: -0.8825
  PD: -0.6502
  PEE: -0.294
  PVNF: -0.8541
  3-phosphoglycerate: 0.2769
  ADP-D-glucose: 0.08672
  ATP: 0.01278
  CDP: -0.4413
  D-sedoheptulose-1/7-phosphate: -0.5631
  FAD: -0.04154
  GMP: 0.0758
  NAD+: -0.03841
  NADP+: 0.1589
  Octoluse Bisphosphate: -0.09051
  Pyroglutamic acid: -0.4571
  UDP-D-glucose: -0.005349
  UDP-D-glucuronate: 0.1448
  UDP-N-acetyl-glucosamine: -0.09963
  UDP: -0.5337
  UMP: -0.1391
  UTP: -0.1864
  a-ketoglutarate: -0.9521
  citrate/isocitrate: -0.8432
  cytidine: 0.1554
  dATP: -0.04411
  dGMP/AMP: 0.02273
  fumarate: -0.3633
  glucose-1/6-phosphate: -0.2644
  glycerate: -1.224
  guanine: -1.026
  guanosine: -2.158
  hypoxanthine: -0.00849
  indole: -0.09763
  inosine: -0.6039
  2_3-Diphosphoglyceric acid: -0.1372
  4-phosphopantothenate: -0.5707
  6-phospho-D-gluconate: -0.1735
  FMN: 0.07582
  IMP: -0.3382
  Pyrophosphate: -0.02007
  Sedoheptoluse bisphosphate: -0.1834
  cyclic-AMP: -0.2741
  glutathione disulfide: -0.5227
  lactate: -1.008
  myo-inositol: -1.363
  nicotinate: -1.278
  ornithine: 0.0513
  phosphoenolpyruvate: 0.03081
  pyruvate: -1.488
  ribose-phosphate: -0.08015
  sarcosine/alanine: -0.6413
  sn-glycerol-3-phosphate: -0.02952
  succinate/methylmalonic acid: -0.4318
  uridine: -1.131
  xanthosine: -0.9126

## COc1ccc(C(=O)Nc2nonc2-c2ccc(OC)c(OC)c2)cc1Cl [MMV011567]
[1]
  EC50: 516 nM
[2]
  Acetyllysine: -2.7765
  N-acetyl-L-ornithine: -1.047
  N-carbamoyl-L-aspartate: -1.546
  NADPH: -0.479
  dAMP: 2.616
  dCMP: 7.615
  dTDP: 4.376
  dTMP: 5.592
  dTTP: 4.192
  dihydroorotate: -1.311
  orotate: 1.606
  DLH: -3.738
  DLS/SDL/SID: -3.085
  PD: -0.447
  PEE: -2.659
  PVNF: -4.149
  3-phosphoglycerate: -0.4312
  ADP-D-glucose: -0.3179
  ATP: 0.7262
  CDP: 1.853
  D-sedoheptulose-1/7-phosphate: -0.5728
  FAD: -0.6926
  GMP: -3.051
  NAD+: -0.6365
  NADP+: -0.4288
  Octoluse Bisphosphate: -1.352
  Pyroglutamic acid: 0.8228
  UDP-D-glucose: 0.2841
  UDP-D-glucuronate: 0.3235
  UDP-N-acetyl-glucosamine: 0.4364
  UDP: 1.166
  UMP: 0.1995
  UTP: 0.7659
  a-ketoglutarate: -0.1289
  citrate/isocitrate: 1.575
  cytidine: 0.6834
  dATP: 1.434
  dGMP/AMP: -0.9068
  fumarate: 0.5595
  glucose-1/6-phosphate: -0.4437
  glycerate: -0.2059
  guanine: 1.129
  guanosine: 0.9628
  hypoxanthine: 0.8431
  indole: 0.1357
  inosine: -0.4655
  2_3-Diphosphoglyceric acid: -0.4768
  4-phosphopantothenate: 0.1624
  6-phospho-D-gluconate: 0.2149
  FMN: 0.2743
  IMP: 0.2415
  Pyrophosphate: -0.9055
  Sedoheptoluse bisphosphate: -0.2891
  cyclic-AMP: 0.1677
  glutathione disulfide: 0.2649
  lactate: -0.6986
  myo-inositol: -1.672
  nicotinate: 1.088
  ornithine: 0.1615
  phosphoenolpyruvate: -0.2076
  pyruvate: -1.296
  ribose-phosphate: -0.6006
  sarcosine/alanine: -1.205
  sn-glycerol-3-phosphate: 0.6609
  succinate/methylmalonic acid: -0.1426
  uridine: 0.07808
  xanthosine: 0.9674
